Broadly, the IC50 is the concentration that inhibits the measured activity by half. Broadly, the viability, T/C is the ratio of treated to control.

Consider 4 molecules from PubChem BioAssay AID2060486 (Molecular Pharmacology Branch, DTP, NCI, 2025).

This assay has as its system IGROV1 complex spheroids (HUVEC, MSC), viability % test/control. Put plainly: Anticancer human tumor IGROV1 cell line growth inhibition [GQUAD].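 On all read-outs here: spheroids exposed to compounds for 7 days before readout.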 Conditions: for viability, T/C: stronger effect = lower value. The text has this:
DNA G-quadruplex Stabilizer Agents in Combinations in Complex Spheroids
A high-throughput screen of multi-cell type tumor spheroids was designed to identify active combinations of DNA G-quadruplex stabilizer agents and targeted small molecules. Complex spheroids include a stromal component modeled by human endothelial cells (HUVEC) and fibroblasts modeled by human mesenchymal stem cells (MSCs). The concentration ranges selected for each drug and investigational agent were based upon clinically achievable concentrations if the clinical Cmax of the agent was known.
Compounds. The drugs and investigational agents: pidnarulex (CX-5461; NSC782164), APTO-253 (NSC789042), BRACO-19 (NSC847499), peposertib (NSC802822), ceralasertib (NSC780249), elimusertib (NSC800525), camonsertib (NSC841442), AZD-1390 (NSC803789), olaparib (NSC753686), talazoparib (NSC767125), ART-558 (NSC835418), sotorasib (NSC818433), MRTX-1133 (NSC836407), SN-38 (NSC673596), topotecan (NSC609699), etoposide (NSC141540), doxorubicin (NSC123127), gemcitabine (NSC613327), 5-fluorouracil (NSC19893), paclitaxel (NSC125973), vemurafenib (NSC761431), panobinostat (NSC761190), R-306465 (JNJ-16241199; NSC773264), adavosertib (NSC754352), TP-3654 (NSC805149), carboplatin (NSC241240), KSQ-4279 (NSC840948), and staurosporine (NSC755774) were obtained from the National Cancer Institute (NCI) Developmental Therapeutics Program Chemical Repository (34). The FDA-approved anticancer drug set is available from the NCI Developmental Therapeutics Program. […] The stock solutions were prepared in dimethyl sulfoxide (DMSO, Sigma-Aldrich, St. Louis, MO, cat. D2650) at 800-fold the tested concentration and stored at -70 degrees C prior to their use. All drugs and investigational agents were tested over a range starting from a high concentration at or near the clinical Cmax and decreasing in half-log increments. If the clinical Cmax for an agent had not been determined, the highest concentration tested was 10 microM.
2.3 Cell Culture. All cells were maintained in an incubator at 37 degrees C and 5% CO2 with 95% humidity. The PDC lines were cultured according to standard operating procedures established by the NCI PDMR. All PDCs were thawed and cultured in Matrigel-coated flasks prepared with a working solution of 1X Ham's F-12 nutrient mix, without supplementation (Invitrogen, cat. 11765054), 100 U/mL penicillin-streptomycin (Invitrogen, cat. 15140122), and 2.5% Matrigel (Corning Inc., cat. 354248) for the first three passages. The 857933-349-R-J2-PDC line was cultured in 6C/Colon 1B media, which includes advanced DMEM/F-12 (Thermo Fisher Scientific, cat. 12634028), 10 mM HEPES (Thermo Fisher Scientific, cat. 15630080), 1X GlutaMAX supplement (Thermo Fisher Scientific, cat. 35050061), 0.1 mg/mL primocin (InvivoGen, cat. ant-pm-2), 10% defined fetal bovine serum, heat inactivated (HyClone Laboratories Inc., cat. SH30070.03HI), 50% L-WRN conditioned media (ATCC, cat. CRL-3276), 1.25 mM N-Acetyl-L-cysteine (Sigma-Aldrich, cat. A9165), 10 mM nicotinamide (Sigma-Aldrich, cat. N0636), 1X B-27 supplement (Thermo Fisher Scientific, cat. 17504044), 1X N-2 supplement (Thermo Fisher Scientific, cat. 17502048), 10 microM Y-27632 dihydrochloride (Tocris Bioscience, cat. 1254), and 50 ng/mL human EGF recombinant protein (Thermo Fisher Scientific, cat. PHG0311). The 485176-168-R4-J1-PDC line was cultured in Panc media, which includes all 6C/Colon 1B media components plus 100 ng/mL human FGF-10 (Thermo Fisher Scientific, cat. 100-26), 500 nM SB-431542 (Selleckchem, cat. S1067), and gastrin (Tocris, cat. 3006).
[…]

Several values for one entry are separate records, joined by “and”; a condition that tells them apart may be missing. Equal values may be shown once.

Take `COc1cccc2c1C(=O)c1c(O)c3c(c(O)c1C2=O)CC(O)(C(=O)CO)CC3OC1CC(N)C(O)C(C)O1` (stereo not drawn) + CN(C)c1ccc(Nc2c3ccc(NC(=O)CCN4CCCC4)cc3nc3cc(NC(=O)CCN4CCCC4)ccc23)cc1: the IC50 was 49.4 nM (curve of first compound, second compound 0.0316 µM); 49 nM (curve of first compound, second compound 0.1 µM); 39.9 nM (curve of first compound, second compound 0.316 µM); 32.4 nM (curve of first compound, second compound 1 µM); 41.3 nM (curve of first compound, second compound 3.16 µM); below 31.6 nM (curve of first compound, second compound 10 µM). In addition, the viability, T/C is, setting by setting: (second compound 0.0316 µM, first compound 0.0316 µM) 67.7%; (second compound 0.0316 µM, first compound 0.1 µM) 21.5%; (second compound 0.0316 µM, first compound 0.316 µM) 9.86%; (second compound 0.0316 µM, first compound 1 µM) 3.36%; (second compound 0.0316 µM, first compound 3.16 µM) 0.13%; (second compound 0.0316 µM, first compound 10 µM) 1.04%. For the same molecule, the viability, T/C (second compound 0.1 µM, first compound 0.0316 µM) is 67.9%; the viability, T/C (second compound 0.1 µM, first compound 0.1 µM) was 20.4%; the viability, T/C (second compound 0.1 µM, first compound 0.316 µM) was 9.01%; the viability, T/C (second compound 0.1 µM, first compound 1 µM) was 3.31%; the viability, T/C (second compound 0.1 µM, first compound 3.16 µM) is 0.07%; the viability, T/C (second compound 0.1 µM, first compound 10 µM) is 1.06%. The viability, T/C by setting is: (second compound 0.316 µM, first compound 0.0316 µM) 57.2%; (second compound 0.316 µM, first compound 0.1 µM) 21.7%; (second compound 0.316 µM, first compound 0.316 µM) 9.64%; (second compound 0.316 µM, first compound 1 µM) 3.48%; (second compound 0.316 µM, first compound 3.16 µM) 0.07%; (second compound 0.316 µM, first compound 10 µM) 1.01%. Besides, the viability, T/C by setting is: (second compound 1 µM, first compound 0.0316 µM) 50.5%; (second compound 1 µM, first compound 0.1 µM) 25.7%; (second compound 1 µM, first compound 0.316 µM) 7.36%; (second compound 1 µM, first compound 1 µM) 2.77%; (second compound 1 µM, first compound 3.16 µM) 0.08%; (second compound 1 µM, first compound 10 µM) 0.98%. The viability, T/C was 59.6% (second compound 3.16 µM, first compound 0.0316 µM); 18.7% (second compound 3.16 µM, first compound 0.1 µM); 8.4% (second compound 3.16 µM, first compound 0.316 µM); 3.44% (second compound 3.16 µM, first compound 1 µM); 0.13% (second compound 3.16 µM, first compound 3.16 µM); 0.94% (second compound 3.16 µM, first compound 10 µM). Moreover, the viability, T/C is 33.5% (second compound 10 µM, first compound 0.0316 µM); 15.6% (second compound 10 µM, first compound 0.1 µM); 5.82% (second compound 10 µM, first compound 0.316 µM); 3.29% (second compound 10 µM, first compound 1 µM); 0.17% (second compound 10 µM, first compound 3.16 µM); 1.15% (second compound 10 µM, first compound 10 µM).

As for `CCc1c2c(nc3ccc(O)cc13)-c1cc3c(c(=O)n1C2)COC(=O)[C@]3(O)CC`, the viability, T/C is, setting by setting: (compound 0.000999 µM) 50.7% and 46.3% and 39%; (compound 0.00316 µM) 13.2% and 15%; (compound 0.00999 µM) 10.7% and 11.2% and 9.68%; (compound 0.0316 µM) 8.77% and 9.76% and 9.57%; (compound 0.0999 µM) 4.33% and 4.71% and 5.08%; (compound 0.316 µM) 1.32% and 1.27% and 1.78%. In addition, the IC50 (curve of compound) was 1 nM and < 0.999 nM.

Consider `COc1ncnc(C2CC2)c1-c1ncc2cnn(Cc3ccc(-c4nc(C(F)(F)F)cn4C(C)C)cc3)c2n1`, for which the viability, T/C by setting is: (compound 0.0316 µM) 99.3% and 85% and 100%; (compound 0.1 µM) 82.7% and 93.3% and 87%; (compound 0.316 µM) 94.9% and 98.1% and 93%; (compound 1 µM) 90.1% and 91.9% and 96.5%; (compound 3.16 µM) 78.2% and 69.5% and 96.9%; (compound 10 µM) 94.5% and 82.1% and 77.6%. The IC50 (curve of compound) was above 10000 nM.

Consider `Nc1ccn(C2OC(CO)C(O)C2(F)F)c(=O)n1` (stereo not drawn), for which the viability, T/C is, setting by setting: (compound 0.0316 µM) 12.1% and 11.8% and 8.43%; (compound 0.1 µM) 5.96% and 5.24% and 5.38%; (compound 0.316 µM) 5.74% and 5.8% and 4.72%; (compound 1 µM) 6.33% and 6.36% and 4.79%; (compound 3.16 µM) 6.11% and 5.6% and 4.26%; (compound 10 µM) 5.62% and 5.26% and 4.2%. The IC50 (curve of compound) was below 31.6 nM.
